Laboratory results as given in patent publication US11198731B2 (Exelixis, Inc., priority 2017, dated 2021).

Columns and labels:
[1] = test system: subjects with medullary thyroid cancer (MTC); assay: Placebo-controlled study of cabozantinib effect on QTc interval; assay type: in vivo, human
Excerpt: A concentration-QTc relationship could not be definitively established. Changes in cardiac wave form morphology or new rhythms were not observed.

cytochrome P450 enzymes = assay: In vitro induction of cytochrome P450 enzymes; assay type: in vitro ADME
CYP3A4 [2] = biological target: T1, CYP3A4 (Homo sapiens, UniProt P08684); assay: In vitro CYP substrate studies; assay type: in vitro ADME
Target sequence in this assay (P08684 whole entry, species assumed): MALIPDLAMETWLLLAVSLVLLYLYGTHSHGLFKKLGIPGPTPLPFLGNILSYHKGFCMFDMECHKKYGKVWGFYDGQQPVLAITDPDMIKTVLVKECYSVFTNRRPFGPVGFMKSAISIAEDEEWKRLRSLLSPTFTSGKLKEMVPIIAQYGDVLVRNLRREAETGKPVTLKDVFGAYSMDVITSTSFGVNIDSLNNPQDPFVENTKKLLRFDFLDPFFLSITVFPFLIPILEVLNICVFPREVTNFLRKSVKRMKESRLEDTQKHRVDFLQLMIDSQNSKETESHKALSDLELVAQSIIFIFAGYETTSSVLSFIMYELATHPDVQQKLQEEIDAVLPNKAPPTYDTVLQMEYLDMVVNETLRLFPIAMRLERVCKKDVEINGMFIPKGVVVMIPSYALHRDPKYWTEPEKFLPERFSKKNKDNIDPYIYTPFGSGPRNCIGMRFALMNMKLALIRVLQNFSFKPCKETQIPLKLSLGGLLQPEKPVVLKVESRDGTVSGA

CYP2C9 = CYP2C9 (Homo sapiens, UniProt P11712); assay: In vitro CYP substrate studies; assay type: in vitro ADME
Sequence of CYP2C9 (P11712 whole entry, species assumed): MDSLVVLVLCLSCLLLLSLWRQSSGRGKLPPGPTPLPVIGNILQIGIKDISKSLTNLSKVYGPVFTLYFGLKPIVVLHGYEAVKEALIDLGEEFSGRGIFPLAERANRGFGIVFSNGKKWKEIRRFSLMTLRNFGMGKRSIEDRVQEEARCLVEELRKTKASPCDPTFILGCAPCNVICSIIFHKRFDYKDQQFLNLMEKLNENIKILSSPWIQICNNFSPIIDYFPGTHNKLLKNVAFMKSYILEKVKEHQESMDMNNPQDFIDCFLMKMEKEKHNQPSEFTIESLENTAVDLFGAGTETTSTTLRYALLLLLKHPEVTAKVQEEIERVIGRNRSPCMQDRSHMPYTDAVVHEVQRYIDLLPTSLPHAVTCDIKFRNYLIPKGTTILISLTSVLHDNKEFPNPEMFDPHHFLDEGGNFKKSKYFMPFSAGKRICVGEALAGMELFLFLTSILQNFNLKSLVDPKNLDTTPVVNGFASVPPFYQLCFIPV

human plasma proteins = assay: Plasma protein binding; assay type: in vitro ADME
[3] = Food effect on cabozantinib exposure; conditions: in vivo
P-glycoprotein = P-glycoprotein (Homo sapiens, UniProt P08183); assay: In vitro P-glycoprotein substrate and inhibition data; assay type: in vitro ADME
Sequence of P-glycoprotein (P08183 whole entry): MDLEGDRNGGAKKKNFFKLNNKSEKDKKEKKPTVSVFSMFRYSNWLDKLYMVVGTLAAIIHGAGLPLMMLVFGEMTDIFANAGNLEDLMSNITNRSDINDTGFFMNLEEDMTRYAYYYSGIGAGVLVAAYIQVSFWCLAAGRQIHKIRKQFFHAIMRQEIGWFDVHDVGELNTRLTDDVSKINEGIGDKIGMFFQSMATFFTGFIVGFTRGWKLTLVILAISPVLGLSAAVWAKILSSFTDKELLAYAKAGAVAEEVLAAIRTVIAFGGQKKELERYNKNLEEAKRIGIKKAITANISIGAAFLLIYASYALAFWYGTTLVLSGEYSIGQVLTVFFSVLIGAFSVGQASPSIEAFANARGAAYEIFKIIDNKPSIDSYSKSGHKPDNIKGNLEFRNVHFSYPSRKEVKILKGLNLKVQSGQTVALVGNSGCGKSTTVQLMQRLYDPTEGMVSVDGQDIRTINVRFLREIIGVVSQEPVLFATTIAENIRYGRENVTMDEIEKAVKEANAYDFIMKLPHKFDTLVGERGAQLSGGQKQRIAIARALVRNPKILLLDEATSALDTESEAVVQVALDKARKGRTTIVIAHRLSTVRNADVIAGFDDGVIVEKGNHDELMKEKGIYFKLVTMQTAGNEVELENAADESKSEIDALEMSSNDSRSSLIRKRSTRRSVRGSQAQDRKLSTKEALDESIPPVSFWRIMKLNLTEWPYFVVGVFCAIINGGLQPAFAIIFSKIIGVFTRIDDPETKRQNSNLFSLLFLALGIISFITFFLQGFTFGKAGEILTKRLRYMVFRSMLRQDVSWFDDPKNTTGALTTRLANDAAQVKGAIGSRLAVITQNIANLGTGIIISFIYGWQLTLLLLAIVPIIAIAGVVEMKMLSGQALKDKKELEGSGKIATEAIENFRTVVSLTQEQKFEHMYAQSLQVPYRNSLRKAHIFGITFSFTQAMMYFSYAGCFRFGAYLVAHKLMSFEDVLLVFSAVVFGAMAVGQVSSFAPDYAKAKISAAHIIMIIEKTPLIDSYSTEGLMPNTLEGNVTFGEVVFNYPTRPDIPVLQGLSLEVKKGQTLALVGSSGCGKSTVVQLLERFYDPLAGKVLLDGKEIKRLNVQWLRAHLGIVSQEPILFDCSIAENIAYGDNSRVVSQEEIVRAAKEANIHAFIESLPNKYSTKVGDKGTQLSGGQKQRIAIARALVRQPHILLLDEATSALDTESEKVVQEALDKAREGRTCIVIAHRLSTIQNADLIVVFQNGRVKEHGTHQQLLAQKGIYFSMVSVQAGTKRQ

[4] = Effect of proton pump inhibitor esomeprazole on cabozantinib plasma PK; assay type: in vivo, human; conditions: healthy volunteers
[5] = Time to steady state exposure of cabozantinib; assay type: in vivo, human; conditions: following first dose
Excerpt: Events that generally have an early onset include hypocalcemia, hypokalemia, thrombocytopenia, hypertension, PPE, abdominal pain, mucosal inflammation, constipation, diarrhea, and vomiting. Adverse events should be managed with supportive car at the earliest signs of toxicity. Dose reductions and treatment interruptions should be considered. Dose reductions are recommended for events that, if persistent, could become serious or intolerable (Table 6-3).

[6] = Nonclinical GLP-compliant toxicology studies; assay type: in vivo
Excerpt: The development of any new or progressive, unexplained neurological symptoms should be assessed for underlying causes.

CYP1A1 = assay: In vitro induction of cytochrome P450 enzymes; assay type: in vitro ADME; conditions: high cabozantinib concentrations (30 μM)
[7] = test system: CYP2D6, CYP2C8, CYP2C19, CYP2B6, or CYP1A2; conditions: human
[8] = test system: advanced RCC after prior VEGFR-TKI; conditions: cited from earlier work
[9] = test system: relapsed or refractory metastatic UC; conditions: cited from earlier work
[10] = test system: advanced CRPC with bone metastases; conditions: cited from earlier work
[11] = test system: NSCLC without EGFR genetic alterations; conditions: cited from earlier work
advanced NSCLC = conditions: cited from earlier work
[12] = test system: advanced RET-rearranged NSCLC; conditions: cited from earlier work
[13] = test system: murine colon carcinoma cell line (MC38-CEA); conditions: in vitro; cited from earlier work
MC38-CEA tumor = conditions: mouse, in vivo; cited from earlier work
[14] = test system: metastatic triple-negative breast cancer; conditions: in vivo; cited from earlier work
invasive prostate cancer = conditions: through a neutrophil mediated anticancer innate immune response; cited from earlier work
[15] = test system: previously-untreated advanced RCC of intermediate- or poor-risk; conditions: cited from earlier work
CYP3A4 [16] = biological target: T1, CYP3A4; assay: Clinical pharmacology study XL184-006 with the strong CYP3A4 inducer rifampin; assay type: in vivo; parameters: endogenous in cells; host or cells: healthy volunteers, in vivo; conditions: concurrent rifampin; single dose of cabozantinib in healthy volunteers
Target sequence in this assay (P08684 whole entry): as the sequence (P08684 whole entry, species assumed) above

CYP3A4 [17] = biological target: T1, CYP3A4; assay: Clinical pharmacology study XL184-007 with the strong CYP3A4 inhibitor ketoconazole; assay type: in vivo; parameters: endogenous in cells; host or cells: healthy volunteers, in vivo; conditions: concurrent ketoconazole; single dose of cabozantinib in healthy volunteers
Target sequence in this assay (P08684 whole entry): as the sequence (P08684 whole entry, species assumed) above

[18] = Cohort 1, 42 evaluable subjects

COc1cc2nccc(Oc3ccc(NC(=O)C4(C(=O)Nc5ccc(F)cc5)CC4)cc3)c2cc1OC [cabozantinib, N-(4-{[6,7-bis(methyloxy)quinolin-4-yl]oxy}phenyl)-N′-(4-fluorophenyl)cyclopropane-1,1-dicarboxamide]
Subjects with a QTcF >500 ms ([1]; cabozantinib 140 mg qd): No cabozantinib-treated subjects
Mean increase in QTcF ([1]; cabozantinib 140 mg qd orally, 4 weeks after initiating treatment): 10 to 15 ms
Events of torsades de pointes ([1]; larger safety database (approximately 5000 subjects exposed)): no events of torsades de pointes
Induction of cytochrome P450 enzymes (cytochrome P450 enzymes): unlikely to Induce
CYP3A4 substrate status (CYP3A4 [2]): CYP3A4 substrate
CYP2C9 substrate status (CYP2C9): weak substrate
Bound to human plasma proteins (human plasma proteins): 99.7%
Increase of exposure levels by food [3]: 57%
Inhibition of P-glycoprotein transport activity (P-glycoprotein): potential to inhibit
P-glycoprotein substrate status (P-glycoprotein): unlikely to be a substrate
Effect of esomeprazole on cabozantinib plasma PK [4]: no clinically-relevant effect
Time to steady state exposure [5]: approximately 2 weeks
Risk of adverse neurological effects [6]: minimal risk of adverse neurological effects
Induction of CYP1A1 (CYP1A1): possible induction
CYP2D6, CYP2C8, CYP2C19, CYP2B6, CYP1A2 substrate status [7]: not a CYP2D6, CYP2C8, CYP2C19, CYP2B6, or CYP1A2 substrate
Dose reductions from 60 mg to 40 mg ([8]; % of subjects): 60%
Further dose reductions from 40 mg to 20 mg ([8]; % of subjects): 20%
Treatment discontinuations due to AEs ([8]; incidence in each arm): 10%
Number of PRs [9, 18]: 7
Number of complete responses (CR) [9, 18]: 1
ORR [9, 18]: 19.1%
Median OS ([9]; Cohort 1): 8.0 months
Median PFS ([9]; Cohort 1): 3.7 months
Cabozantinib-related Grade 4 AE: hypomagnesemia ([9]; all cohorts (n=67)): 3%
Cabozantinib-related Grade 4 AE: lipase increased ([9]; all cohorts (n=67)): 1%
Grade 3 AE related to cabozantinib: hypertension ([9]; all cohorts (n=67)): 7%
Grade 3 AE related to cabozantinib: hypophosphatemia ([9]; all cohorts (n=67)): 6%
Grade 3 AE related to cabozantinib: fatigue ([9]; all cohorts (n=67), most frequent (5% incidence)): 9%
Immunosuppressive Treg lymphocytes following treatment ([9]; in vivo): reductions
Proportion of subjects with a bone scan response (BSR) per IRC ([10]; at Week 12): 42%
Median PFS per investigator ([10]; exploratory endpoint): 5.6 months
Median duration of BSR ([10]; in vivo): 5.8 months
Median duration of OS (Kaplan-Meier) ([10]; in vivo): 11.0 months
Estimated median OS ([11]; in vivo): 9.2 months
ORR ([11]; in vivo): 11%
PFS ([11]; second or third line treatment): 4.3 months
Grade 3 or 4 AE: diarrhea ([11]; single-agent cabozantinib): 8%
Grade 3 or 4 AE: fatigue ([11]; single-agent cabozantinib): 15%
Grade 3 or 4 AE: hypertension ([11]; single-agent cabozantinib): 25%
Grade 3 or 4 AE: oral mucositis ([11]; single-agent cabozantinib): 10%
Grade 3 or 4 AE: thromboembolic event ([11]; single-agent cabozantinib): 8%
ORR (advanced NSCLC; 60 subjects, single agent): 10%
Stable disease as best response (advanced NSCLC; % of subjects): 48.3%
Objective response rate (ORR) (advanced NSCLC; heavily pre-pretreated unselected NSCLC, early phase clinical trials): approximately 10%
Median PFS (advanced NSCLC; in vivo): 4.0 months
Overall response rate (ORR) ([12]; RET-rearranged NSCLC): 28%
Grade 3 treatment-related AE: decreased platelet count ([12]; in vivo): 8%
Grade 3 treatment-related AE: hypophosphataemia ([12]; in vivo): 8%
Grade 3 treatment-related AE: increased ALT ([12]; in vivo): 8%
Grade 3 treatment-related AE: increased AST ([12]; in vivo): 8%
Grade 3 treatment-related AE: lipase elevation ([12]; in vivo): 15%
Median OS ([12]; in vivo): 9.9 months
Median PFS ([12]; in vivo): 5.5 months
Treatment-related deaths ([12]; in vivo): No treatment-related deaths
Sensitivity of tumor cells to T-cell-mediated killing [13]: greater sensitivity
Tumor-cell expression of major histocompatibility complex (MHC) class 1 antigen [13]: increased tumor-cell expression
Peripheral CD8+ T-cell counts (MC38-CEA tumor): increased
Regulatory T-cells (Tregs) and myeloid-derived suppressor cells (MDSCs) (MC38-CEA tumor): decreased
Treg suppressor activity (MC38-CEA tumor): decreased
CD14+ monocytes [14]: persistent decrease
Fraction of circulating CD3+ T lymphocytes [14]: persistent increase
Effect on invasive prostate cancer (invasive prostate cancer): rapid elimination of invasive prostate cancer
Discontinued study treatment due to an AE ([15]; 16 subjects in each arm): 20%
Adverse events of ≥Grade 3 regardless of causality ([15]; % of subjects): 68%
Reduction of the rate of disease progression or death ([15]; compared with sunitinib): 34%
Median OS ([15]; in vivo): 26.6 months
Median PFS per IRC ([15]; in vivo): 8.6 months
Median PFS per investigator ([15]; in vivo): 8.2 months
≥Grade 3 AE: PPE ([15]; in vivo): 8%
≥Grade 3 AE: diarrhea ([15]; in vivo): 10%
≥Grade 3 AE: fatigue ([15]; in vivo): 6%
≥Grade 3 AE: hematological events ([15]; in vivo): 2%
≥Grade 3 AE: hypertension ([15]; in vivo): 28%
Reduction in cabozantinib exposure (AUC values) (CYP3A4 [16]): approximately 77%
Increase in cabozantinib exposure (AUC values) (CYP3A4 [17]): 38%
